The results in this text go back to patent US20070208166A1, “Tao Kinase Modulators And Method Of Use” (Exelixis, Inc., priority 2003, published 2007).

Type in all cases: biochemical
The target in experiment [1] is T1, KIAA 1361 (baculovirus expressed human KIAA 1361 kinase domain 2-322) (Homo sapiens, UniProt Q7L7X3).
T1 construct: human KIAA 1361 kinase domain 2-322; made in house
T1 sequence (Q7L7X3 2-322): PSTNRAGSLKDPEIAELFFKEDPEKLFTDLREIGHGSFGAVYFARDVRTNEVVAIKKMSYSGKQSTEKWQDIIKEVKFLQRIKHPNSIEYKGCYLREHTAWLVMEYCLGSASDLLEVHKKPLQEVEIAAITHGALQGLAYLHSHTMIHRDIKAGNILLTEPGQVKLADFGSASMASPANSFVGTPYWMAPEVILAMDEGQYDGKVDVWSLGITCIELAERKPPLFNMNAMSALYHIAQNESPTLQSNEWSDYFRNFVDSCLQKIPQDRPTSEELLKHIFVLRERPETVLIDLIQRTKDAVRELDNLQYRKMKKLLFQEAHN
The experiment is described as follows: KIAA 1361 Luciferase-Coupled Chemiluminescent Kinase assay (LCCA). The note with it: 2 μM ATP, 10 μM MBP, 12 nM KIAA 1361, 2 hours; read-out: KIAA1361 inhibition IC50. In a few lines:
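KIAA 1361 kinase domain 2-322 (baculovirus, 12 nM) with 2 μM ATP and 10 μM MBP in Tris pH 7.5, MgCl2, MnCl2; 2 h, ambient. Remaining ATP read by luciferase chemiluminescence; 10 concentrations, IC50 by four-parameter fit.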

The target in a further experiment is T2, TAO (Homo sapiens, UniProt Q9UL54).
T2 sequence (Q9UL54 1-1235): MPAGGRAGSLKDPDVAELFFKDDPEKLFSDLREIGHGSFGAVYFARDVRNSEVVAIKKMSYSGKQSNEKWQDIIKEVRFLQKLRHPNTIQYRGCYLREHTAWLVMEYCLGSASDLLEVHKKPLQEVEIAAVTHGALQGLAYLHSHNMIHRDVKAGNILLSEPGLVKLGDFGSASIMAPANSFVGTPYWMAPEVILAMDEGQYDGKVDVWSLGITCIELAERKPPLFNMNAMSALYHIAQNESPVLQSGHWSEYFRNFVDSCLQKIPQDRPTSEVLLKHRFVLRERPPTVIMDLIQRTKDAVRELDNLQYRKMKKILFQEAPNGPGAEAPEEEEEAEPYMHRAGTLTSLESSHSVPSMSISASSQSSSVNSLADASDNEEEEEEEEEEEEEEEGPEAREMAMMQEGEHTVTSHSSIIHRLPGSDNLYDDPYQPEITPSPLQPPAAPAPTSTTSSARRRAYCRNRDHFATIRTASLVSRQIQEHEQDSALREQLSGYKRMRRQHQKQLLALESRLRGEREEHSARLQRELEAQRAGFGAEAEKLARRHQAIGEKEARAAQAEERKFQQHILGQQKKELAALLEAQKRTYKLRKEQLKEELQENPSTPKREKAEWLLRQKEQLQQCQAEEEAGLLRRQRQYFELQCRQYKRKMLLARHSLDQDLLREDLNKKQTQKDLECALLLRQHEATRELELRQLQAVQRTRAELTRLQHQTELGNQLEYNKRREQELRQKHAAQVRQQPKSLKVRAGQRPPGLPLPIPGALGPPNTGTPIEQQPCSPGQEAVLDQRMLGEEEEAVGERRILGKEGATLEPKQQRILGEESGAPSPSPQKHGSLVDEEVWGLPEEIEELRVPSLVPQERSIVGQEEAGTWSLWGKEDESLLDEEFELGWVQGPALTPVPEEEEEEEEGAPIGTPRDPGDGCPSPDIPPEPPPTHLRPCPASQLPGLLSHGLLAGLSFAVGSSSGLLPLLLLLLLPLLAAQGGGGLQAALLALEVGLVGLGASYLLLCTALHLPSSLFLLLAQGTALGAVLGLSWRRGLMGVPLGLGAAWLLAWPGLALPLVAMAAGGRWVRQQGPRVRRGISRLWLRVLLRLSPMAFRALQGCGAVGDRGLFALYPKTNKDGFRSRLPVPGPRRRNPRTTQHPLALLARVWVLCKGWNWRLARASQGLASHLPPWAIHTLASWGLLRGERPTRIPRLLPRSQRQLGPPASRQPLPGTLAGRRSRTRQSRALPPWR
Briefly: TAO Luciferase-Coupled Chemiluminescent Kinase assay (LCCA). The note with it: 2 μM ATP, 10 μM MBP, 12 nM TAO, 2 hours; read-out: TAO inhibition IC50.

In the next experiment the target is T3, JIK (Homo sapiens, UniProt Q9H2K8).
T3 construct: 6 nM JIK (baculovirus expressed human KIAA 1361 kinase domain2-318); made in house
T3 sequence (Q9H2K8 2-318): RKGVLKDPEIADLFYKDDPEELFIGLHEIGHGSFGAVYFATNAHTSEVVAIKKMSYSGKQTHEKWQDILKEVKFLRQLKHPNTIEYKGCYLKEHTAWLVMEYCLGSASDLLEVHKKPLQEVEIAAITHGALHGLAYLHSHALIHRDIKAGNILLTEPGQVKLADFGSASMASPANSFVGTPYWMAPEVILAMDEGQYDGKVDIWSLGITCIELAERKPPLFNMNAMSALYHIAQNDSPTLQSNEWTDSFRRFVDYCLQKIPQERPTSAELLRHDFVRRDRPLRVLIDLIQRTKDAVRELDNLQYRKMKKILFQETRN
The experiment is described as follows: JIK Luciferase-Coupled Chemiluminescent Kinase assay (LCCA). As to conditions: 2 μM ATP, 10 μM MBP, 6 nM JIK, 2 hours; read-out: JIK inhibition IC50. In a few lines:
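Baculovirus-expressed human KIAA 1361 kinase domain 2-318 at 6 nM, with 10 μM MBP and 2 μM ATP in Tris pH 7.5 with Mg/Mn, ran 2 h at ambient temperature. Remaining ATP was read by luciferase chemiluminescence. IC50 comes from a 10-concentration four-parameter fit.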

A word on the IC50: it is the concentration that inhibits the measured activity by half. For `O=C(CNCc1ccc(-c2ccccc2)cc1)NC1CCCc2ccccc21` (stereo not drawn) [Entry 69, N˜2˜-(biphenyl-4-ylmethyl)-N-(1,2,3,4-tetrahydronaphthalen-1-yl)glycinamide], the figures for the IC50 (in experiment [1]; at TAO; at JIK) were more than 5000 nM, more than 5 µM and more than 5000 nM, respectively.

`O=C(CNC(=O)c1ccc2ccccc2c1)NC1CCCc2ccccc21` (stereo not drawn) [Entry 44, N-[2-oxo-2-(1,2,3,4-tetrahydronaphthalen-1-ylamino)ethyl]naphthalene-2-carboxamide]: the IC50 was 500 to 5000 nM in experiment [1], more than 5 µM on TAO and 500 to 5000 nM on JIK.

Take `COc1ccc(/C=C/C(=O)N2Cc3[nH]cnc3CC2C(=O)NCCc2cccc(Cl)c2)cc1OC` (stereo not drawn) [Entry 15, 5-{(2E)-3-[3,4-bis(methyloxy)phenyl]prop-2-enoyl}-N-[2-(3-chlorophenyl)ethyl]-4,5,6,7-tetrahydro-3H-imidazol[4,5-c]pyridine-6-carboxamide]: the values for the concentration for half-maximal inhibition (IC50) (in experiment [1]; at TAO; at JIK) were 50 to 500 nM, 0.5 to 5 µM and less than 50 nM, respectively.

For `CCc1cccc(NC(=O)NCC(=O)NC2CCCc3ccccc32)c1` (stereo not drawn) [Entry 48, N˜2˜-{[(3-ethylphenyl)amino]carbonyl}-N-(1,2,3,4-tetrahydronaphthalen-1-yl)glycinamide], the half-inhibitory concentration (IC50) was more than 5000 nM in experiment [1], more than 5 µM at TAO and more than 5000 nM at JIK.

As for `COc1cc2cc(C(=O)NCC(=O)NC3CCCc4ccccc43)[nH]c2cc1OC` (stereo not drawn) [Entry 59, 5,6-bis(methyloxy)-N-(2-oxo-2-(1,2,3,4-tetrahydronaphthalen-1-ylamino)ethyl]-1H-indole-2-carboxamide], the values for the half-inhibitory concentration (IC50) (in experiment [1]; on TAO; at JIK) were 500 to 5000 nM, 0.5 to 5 µM and 50 to 500 nM, respectively.
